Experimental data taken from the supplement of paper PMC11061612.

Tests used:
Palbociclib = compound: CC(=O)c1c(C)c2cnc(Nc3ccc(N4CCNCC4)cn3)nc2n(C2CCCC2)c1=O [Palbociclib]; settings: max 10 µM
Summary of the method: (§1)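 Cancer cell lines were seeded into 1536-well plates in 7.5 μl medium (DMEM/F12 or RPMI, 10% FBS), held 24 hours at 37°C and 5% CO2, and dosed for 72 hours with final DMSO typically 0.2%. Luminescence from CellTiter-Glo 2.0, scaled between blank-well and DMSO-well means, served as viability. The single-agent IC50 was obtained from dose-response fits with a non-linear mixed effects model, each fit being a two-parameter logistic curve.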

Gefitinib = compound: COc1cc2ncnc(Nc3ccc(F)c(Cl)c3)c2cc1OCCCN1CCOCC1 [Gefitinib]; settings: max 10 µM
Summary of the method: as §1

AZD1775 = compound: C=CCn1c(=O)c2cnc(Nc3ccc(N4CCN(C)CC4)cc3)nc2n1-c1cccc(C(C)(C)O)n1 [AZD1775]; settings: max 3 µM
Summary of the method: as §1

AZD1390 = compound: CC(C)n1c(=O)n(C)c2cnc3cc(F)c(-c4ccc(OCCCN5CCCCC5)nc4)cc3c21 [AZD1390]; settings: max 0.3 µM
Summary of the method: as §1

Crizotinib = compound: C[C@@H](Oc1cc(-c2cnn(C3CCNCC3)c2)cnc1N)c1c(Cl)ccc(F)c1Cl [Crizotinib]; settings: max 10 µM
Summary of the method: as §1

SG3199 = compound: CC1=CN2[C@@H](C1)C=NC3=CC(=C(C=C3C2=O)OC)OCCCCCOC4=C(C=C5C(=C4)N=C[C@@H]6CC(=CN6C5=O)C)OC [SG3199]; settings: max 0.001 µM
Summary of the method: as §1

Selumetinib = compound: Cn1cnc2c(F)c(Nc3ccc(Br)cc3Cl)c(C(=O)NOCCO)cc21 [Selumetinib]; settings: max 10 µM
Summary of the method: as §1

Dasatinib = compound: CC1=C(C(=CC=C1)Cl)NC(=O)C2=CN=C(S2)NC3=CC(=NC(=N3)C)N4CCN(CC4)CCO [Dasatinib]; settings: max 2 µM
Summary of the method: as §1

AZD7648 = compound: Cc1cc2ncnn2cc1Nc1ncc2c(n1)n(C1CCOCC1)c(=O)n2C [AZD7648]; settings: max 10 µM
Summary of the method: as §1

Taselisib = compound: Cc1nc(-c2cn3c(n2)-c2ccc(-c4cnn(C(C)(C)C(N)=O)c4)cc2OCC3)n(C(C)C)n1 [Taselisib]; settings: max 10 µM
Summary of the method: as §1

AZD8186 = compound: C[C@@H](Nc1cc(F)cc(F)c1)c1cc(C(=O)N(C)C)cc2c(=O)cc(N3CCOCC3)oc12 [AZD8186]; settings: max 3 µM
Summary of the method: as §1

Trametinib = compound: CC(=O)Nc1cccc(-n2c(=O)n(C3CC3)c(=O)c3c(Nc4ccc(I)cc4F)n(C)c(=O)c(C)c32)c1 [Trametinib]; settings: max 1 µM
Summary of the method: as §1

Olaparib = compound: O=C(c1cc(Cc2n[nH]c(=O)c3ccccc23)ccc1F)N1CCN(C(=O)C2CC2)CC1 [Olaparib]; settings: max 10 µM
Summary of the method: as §1

Savolitinib = compound: C[C@@H](c1ccc2nccn2c1)n1nnc2ncc(-c3cnn(C)c3)nc21 [Savolitinib]; settings: max 1 µM
Summary of the method: as §1

AZD2811 = compound: CCN(CCO)CCCOc1ccc2c(Nc3cc(CC(=O)Nc4cccc(F)c4)[nH]n3)ncnc2c1 [AZD2811]; settings: max 1 µM
Summary of the method: as §1

Alisertib = compound: COc1cc(Nc2ncc3c(n2)-c2ccc(Cl)cc2C(c2c(F)cccc2OC)=NC3)ccc1C(=O)O [Alisertib]; settings: max 10 µM
Summary of the method: as §1

Capivasertib = compound: C1CN(CCC1(C(=O)N[C@@H](CCO)C2=CC=C(C=C2)Cl)N)C3=NC=NC4=C3C=CN4 [Capivasertib]; settings: max 10 µM
Summary of the method: as §1

Doxorubicin = compound: COc1cccc2c1C(=O)c1c(O)c3c(c(O)c1C2=O)C[C@@](O)(C(=O)CO)C[C@@H]3O[C@H]1C[C@H](N)[C@H](O)[C@H](C)O1 [Doxorubicin]; settings: max 1 µM
Summary of the method: as §1

AZD5153 = compound: COc1nnc2ccc(N3CCC(c4ccc(OCCN5CCN(C)C(=O)[C@H]5C)cc4)CC3)nn12 [AZD5153]; settings: max 1 µM
Summary of the method: as §1

SN-38 = compound: CCc1c2c(nc3ccc(O)cc13)-c1cc3c(c(=O)n1C2)COC(=O)[C@]3(O)CC [SN-38]; settings: max 0.3 µM
Summary of the method: as §1

AZD6738 = compound: C[C@@H]1COCCN1C2=NC(=NC(=C2)C3(CC3)[S@](=N)(=O)C)C4=C5C=CNC5=NC=C4 [AZD6738]; settings: max 10 µM
Summary of the method: as §1

AZD4320 = compound: CN(CC[C@H](CSC1=CC=CC=C1)NC2=C(C=C(C=C2)S(=O)(=O)NC(=O)C3=CC=C(C=C3)N4CCC(CC4)[C@H](C5=CC=CC=C5C6=CC=C(C=C6)Cl)O)S(=O)(=O)C(F)(F)F)CCO [AZD4320]; settings: max 1 µM
Summary of the method: as §1

AZD0156 = compound: CN(C)CCCOc1ccc(-c2ccc3ncc4c(c3c2)n(C2CCOCC2)c(=O)n4C)cn1 [AZD0156]; settings: max 3 µM
Summary of the method: as §1

Lapatinib = compound: CS(=O)(=O)CCNCc1ccc(-c2ccc3ncnc(Nc4ccc(OCc5cccc(F)c5)c(Cl)c4)c3c2)o1 [Lapatinib]; settings: max 10 µM
Summary of the method: as §1

Venetoclax = compound: CC1(C)CCC(CN2CCN(c3ccc(C(=O)NS(=O)(=O)c4ccc(NCC5CCOCC5)c([N+](=O)[O-])c4)c(Oc4cnc5[nH]ccc5c4)c3)CC2)=C(c2ccc(Cl)cc2)C1 [Venetoclax]; settings: max 1 µM
Summary of the method: as §1

Prexasertib = compound: COc1cccc(OCCCN)c1-c1cc(Nc2cnc(C#N)cn2)n[nH]1 [Prexasertib]; settings: max 1 µM
Summary of the method: as §1

AZD5991 = compound: Cc1c2c(nn1C)CSCc1cc(n(C)n1)CSc1cc(c3ccccc3c1)OCCCc1c(C(=O)O)n(C)c3c-2c(Cl)ccc13 [AZD5991]; settings: max 1 µM
Summary of the method: as §1

MK-2206 = compound: NC1(c2ccc(-c3nc4ccn5c(=O)[nH]nc5c4cc3-c3ccccc3)cc2)CCC1 [MK-2206]; settings: max 10 µM
Summary of the method: as §1

Cell Line	IC50, cell viability 72 h (Palbociclib)	IC50, cell viability 72 h (Gefitinib)	IC50, cell viability 72 h (AZD1775)	IC50, cell viability 72 h (AZD1390)	IC50, cell viability 72 h (Crizotinib)	IC50, cell viability 72 h (SG3199)	IC50, cell viability 72 h (Selumetinib)	IC50, cell viability 72 h (Dasatinib)	IC50, cell viability 72 h (AZD7648)	IC50, cell viability 72 h (Taselisib)	IC50, cell viability 72 h (AZD8186)	IC50, cell viability 72 h (Trametinib)	IC50, cell viability 72 h (Olaparib)	IC50, cell viability 72 h (Savolitinib)	IC50, cell viability 72 h (AZD2811)	IC50, cell viability 72 h (Alisertib)	IC50, cell viability 72 h (Capivasertib)	IC50, cell viability 72 h (Doxorubicin)	IC50, cell viability 72 h (AZD5153)	IC50, cell viability 72 h (SN-38)	IC50, cell viability 72 h (AZD6738)	IC50, cell viability 72 h (AZD4320)	IC50, cell viability 72 h (AZD0156)	IC50, cell viability 72 h (Lapatinib)	IC50, cell viability 72 h (Venetoclax)	IC50, cell viability 72 h (Prexasertib)	IC50, cell viability 72 h (AZD5991)	IC50, cell viability 72 h (MK-2206)
RERF-LC-Sq1 (Squamous Cell Lung Carcinoma)	6600 nM	3120 nM	681 nM	> 300 nM	> 10000 nM	> 1 nM	> 10000 nM	> 2000 nM	> 10000 nM	427 nM	> 3000 nM	179 nM	> 10000 nM	> 1000 nM	> 1000 nM	> 10000 nM	1600 nM	1000 nM	768 nM	167 nM	4110 nM	> 1000 nM	> 3000 nM	2640 nM	> 1000 nM	36.6 nM	> 1000 nM	–
LB996-RCC (Kidney Carcinoma)	> 10000 nM	> 10000 nM	403 nM	> 300 nM	> 10000 nM	> 1 nM	> 10000 nM	188 nM	> 10000 nM	1740 nM	> 3000 nM	> 1000 nM	> 10000 nM	> 1000 nM	> 1000 nM	4590 nM	5320 nM	625 nM	> 1000 nM	8.64 nM	9940 nM	> 1000 nM	> 3000 nM	> 10000 nM	> 1000 nM	167 nM	> 1000 nM	–
HCT-15 (Colorectal Carcinoma)	> 10000 nM	> 10000 nM	544 nM	> 300 nM	7410 nM	> 1 nM	> 10000 nM	1730 nM	> 10000 nM	3860 nM	> 3000 nM	> 1000 nM	> 10000 nM	> 1000 nM	> 1000 nM	4210 nM	> 10000 nM	619 nM	227 nM	53.5 nM	4000 nM	> 1000 nM	> 3000 nM	> 10000 nM	> 1000 nM	139 nM	> 1000 nM	–
LXF-289 (Lung Adenocarcinoma)	> 10000 nM	> 10000 nM	814 nM	> 300 nM	4530 nM	> 1 nM	> 10000 nM	171 nM	> 10000 nM	> 10000 nM	> 3000 nM	> 1000 nM	> 10000 nM	> 1000 nM	> 1000 nM	3390 nM	> 10000 nM	> 1000 nM	377 nM	> 300 nM	> 10000 nM	> 1000 nM	> 3000 nM	4860 nM	> 1000 nM	240 nM	> 1000 nM	–
SF268 (Low Grade Glioma)	> 10000 nM	> 10000 nM	> 3000 nM	> 300 nM	> 10000 nM	> 1 nM	> 10000 nM	> 2000 nM	> 10000 nM	> 10000 nM	> 3000 nM	> 1000 nM	> 10000 nM	> 1000 nM	> 1000 nM	7280 nM	> 10000 nM	> 1000 nM	> 1000 nM	23.5 nM	> 10000 nM	> 1000 nM	> 3000 nM	> 10000 nM	> 1000 nM	643 nM	> 1000 nM	–
NCI-H23 (Lung Adenocarcinoma)	> 10000 nM	> 10000 nM	381 nM	> 300 nM	5950 nM	> 1 nM	> 10000 nM	> 2000 nM	> 10000 nM	> 10000 nM	> 3000 nM	348 nM	> 10000 nM	> 1000 nM	> 1000 nM	9990 nM	> 10000 nM	> 1000 nM	208 nM	102 nM	3270 nM	> 1000 nM	> 3000 nM	> 10000 nM	> 1000 nM	59.6 nM	319 nM	> 10000 nM
